Data published in ChEMBL document CHEMBL2331273 (Bioorg Med Chem Lett, 2013).
Active and inactive are the calls of the source. The rule behind the calls is not given here.

What was measured:
[1] = molecular target: Beta-2 adrenergic receptor (Cavia porcellus, UniProt Q8K4Z4); assay: Agonist activity at beta2-adrenoceptor in guinea pig trachea assessed as relaxation of histamine-induced precontracted tracheal rings
[2] = molecular target: 3',5'-cyclic-AMP phosphodiesterase 4B (Homo sapiens, UniProt Q07343); assay: Inhibition of human recombinant PDE4B2 assessed as decrease in cAMP hydrolysis preincubated with substrate prior to enzyme addition measured after 30 mins by colorimetric assay method
3',5'-cyclic-AMP phosphodiesterase 4B, sequence (Q07343 whole entry): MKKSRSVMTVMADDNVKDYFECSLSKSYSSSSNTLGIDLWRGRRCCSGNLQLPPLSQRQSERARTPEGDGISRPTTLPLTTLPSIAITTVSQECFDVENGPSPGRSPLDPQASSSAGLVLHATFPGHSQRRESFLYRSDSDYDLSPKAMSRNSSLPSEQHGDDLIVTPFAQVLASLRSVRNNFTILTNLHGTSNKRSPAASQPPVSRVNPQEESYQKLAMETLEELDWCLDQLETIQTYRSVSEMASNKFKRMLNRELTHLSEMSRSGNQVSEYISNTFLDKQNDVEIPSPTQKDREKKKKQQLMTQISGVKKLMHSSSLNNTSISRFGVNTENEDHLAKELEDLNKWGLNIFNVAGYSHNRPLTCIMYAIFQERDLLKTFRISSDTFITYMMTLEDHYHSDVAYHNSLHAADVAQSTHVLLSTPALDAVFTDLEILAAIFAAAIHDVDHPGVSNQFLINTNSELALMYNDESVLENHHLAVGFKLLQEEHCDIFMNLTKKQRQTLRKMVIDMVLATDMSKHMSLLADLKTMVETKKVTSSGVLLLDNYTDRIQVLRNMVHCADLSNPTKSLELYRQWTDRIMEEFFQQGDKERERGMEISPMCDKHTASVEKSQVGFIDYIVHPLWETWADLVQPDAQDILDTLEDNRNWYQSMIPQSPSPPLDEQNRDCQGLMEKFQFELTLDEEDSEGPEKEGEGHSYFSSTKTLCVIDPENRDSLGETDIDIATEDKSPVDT

[3] = molecular target: Beta-2 adrenergic receptor (Cavia porcellus) (UniProt Q8K4Z4); assay: Agonist activity at beta2-adrenoceptor in guinea pig trachea assessed as relaxation of histamine-induced precontracted tracheal rings treated 10 mins after histamine and beta2-adrenoceptor antagonist, ICI 118,551 addition
Beta-2 adrenergic receptor (Cavia porcellus), sequence (Q8K4Z4 whole entry, looked up): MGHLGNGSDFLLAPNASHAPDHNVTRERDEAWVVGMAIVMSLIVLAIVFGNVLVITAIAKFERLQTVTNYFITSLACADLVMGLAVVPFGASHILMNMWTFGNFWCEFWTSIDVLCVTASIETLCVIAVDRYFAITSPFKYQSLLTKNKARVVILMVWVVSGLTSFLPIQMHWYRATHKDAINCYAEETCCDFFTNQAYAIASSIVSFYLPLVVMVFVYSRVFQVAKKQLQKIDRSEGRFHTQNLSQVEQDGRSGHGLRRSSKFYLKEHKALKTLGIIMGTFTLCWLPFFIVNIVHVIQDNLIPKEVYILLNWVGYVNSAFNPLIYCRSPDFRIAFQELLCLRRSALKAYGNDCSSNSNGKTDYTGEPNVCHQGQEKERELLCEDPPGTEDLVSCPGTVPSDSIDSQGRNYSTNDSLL

Beta-2 adrenergic receptor, sequence (Q8K4Z4 whole entry): as the sequence (Q8K4Z4 whole entry, looked up) above

SMILES: COc1ccc(C(=O)Nc2c(Cl)cncc2Cl)cc1OCCCCCNCC(O)c1ccc(O)c(CO)c1 (centres undefined)
- EC50 [1]: 1.95 nM
- IC50 [2]: 394 nM

SMILES: CC(C)NCC(O)c1ccc(O)c(O)c1 (centres undefined) [ISOPROTERENOL]
- EC50 [1]: 28.8 nM

SMILES: COc1ccc(C2=NN(CCCCNCC(O)c3ccc(O)c(CO)c3)C(=O)C3CCCCC23)cc1OC (centres undefined)
- EC50 [1]: 0.676 nM
- IC50 [2]: 278 nM

SMILES: COc1ccc(C2=NN(CCCCCCNCC(O)c3ccc(O)c(CO)c3)C(=O)C3CCCCC23)cc1OC (centres undefined)
- EC50 [1]: 0.631 nM
- IC50 [2]: 263 nM
- Activity [3]: inactive

SMILES: COc1ccc(C(=O)Nc2c(Cl)cncc2Cl)cc1OCCCCCCNCC(O)c1ccc(O)c(CO)c1 (centres undefined)
- EC50 [1]: 3.16 nM
- IC50 [2]: 235 nM
- Activity [3]: inactive

SMILES: COc1ccc(C(=O)Nc2c(Cl)cncc2Cl)cc1OCCCCNCC(O)c1ccc(O)c(CO)c1 (centres undefined)
- EC50 [1]: 2.82 nM
- IC50 [2]: 601 nM

SMILES: COc1ccc(C2=NN(CCNCC(O)c3ccc(O)c(CO)c3)C(=O)C3CCCCC23)cc1OC (centres undefined)
- EC50 [1]: 0.646 nM
- IC50 [2]: 282 nM

SMILES: COc1ccc(C2=NN(CCCCCNCC(O)c3ccc(O)c(CO)c3)C(=O)C3CCCCC23)cc1OC (centres undefined)
- EC50 [1]: 0.832 nM
- IC50 [2]: 271 nM

SMILES: COc1ccc(C(=O)Nc2c(Cl)cncc2Cl)cc1OCCCNCC(O)c1ccc(O)c(CO)c1 (centres undefined)
- EC50 [1]: 3.39 nM
- IC50 [2]: 1090 nM
